# Measurements from ChEMBL document CHEMBL4602604, “A Selective and Brain Penetrant p38αMAPK Inhibitor Candidate for Neurologic and Neuropsychiatric Disorders That Attenuates Neuroinflammation and Cognitive Dysfunction” (J Med Chem, 2019).
# Active and inactive are the calls of the source. The calls are words filed in the database; no cut-off is given here.
# Tests used:
# [1] = human, microsomes, 1 µM
# [2] = biological target: Neuronal acetylcholine receptor; alpha4/beta2 (Homo sapiens) (UniProt P17787+P43681); assay: Inhibition of human alpha4beta2 nAChR receptor at 10 uM; format: protein-complex assay
# [3] = biological target: 5-hydroxytryptamine receptor 1A (Homo sapiens) (UniProt P08908); assay: Inhibition of human 5HT1A receptor at 10 uM
# Cytochrome P450 2C9 = Cytochrome P450 2C9 (Homo sapiens, UniProt P11712); assay: Inhibition of human recombinant CYP2C9 at 10 uM incubated for 10 to 30 mins in presence of CYP-specific probe MFC substrate by LC-MS/MS analysis; format: ADME; conditions: recombinant enzyme
# [4] = biological target: Beta-1 adrenergic receptor (Homo sapiens) (UniProt P08588); assay: Inhibition of human adrenergic beta1 receptor at 10 uM
# [5] = biological target: Prostaglandin G/H synthase 1 (Homo sapiens, UniProt P23219); assay: Inhibition of human COX1 at 10 uM
# Cytochrome P450 2C19 = Cytochrome P450 2C19 (Homo sapiens, UniProt P33261); assay: Inhibition of human recombinant CYP2C19 at 10 uM incubated for 10 to 30 mins in presence of CYP-specific probe CEC substrate by LC-MS/MS analysis; format: ADME; conditions: recombinant enzyme
# Acetylcholinesterase = Acetylcholinesterase (Homo sapiens, UniProt P22303); assay: Inhibition of human acetyl cholinesterase at 10 uM
# [6] = biological target: 5-hydroxytryptamine receptor 3A (Homo sapiens) (UniProt P46098); assay: Inhibition of human 5HT3 receptor at 10 uM
# [7] = biological target: Sodium-dependent noradrenaline transporter (Homo sapiens) (UniProt P23975); assay: Inhibition of human norepinephrine transporter at 10 uM
# in vitro [8] = conditions: Beagle, dog, hepatocytes
# Description: Half life in Beagle dog hepatocytes at 1 uM by LC-MS/MS analysis
# [9] = biological target: Glucocorticoid receptor (Homo sapiens) (UniProt P04150); assay: Inhibition of human glucocorticoid receptor at 10 uM
# Mus musculus [10] = assay: Suppression of human recombinant tau-induced memory impairment in C57Bl/6 mouse model of oligomeric tau infusion model assessed as attenuation of deficits in spatial and associative memory performance at 5 mg/kg, ip dosed 20 mins prior to start of testing by contextual fear conditioning assay; format: functional, organism-based
# [11] = biological target: Delta-type opioid receptor (Homo sapiens) (UniProt P41143); assay: Inhibition of human OP1 receptor at 10 uM
# [12] = biological target: Glutamate NMDA receptor (Rattus norvegicus) (UniProt P35439+Q00959+Q00960+Q00961+Q62645+Q8VHN2+Q9R1M7); assay: Inhibition of rat NMDA receptor at 10 uM; format: protein-complex assay
# [13] = biological target: 5-hydroxytryptamine receptor 2B (Homo sapiens) (UniProt P41595); assay: Inhibition of human 5HT2B receptor at 10 uM
# Cytochrome P450 2B6 = Cytochrome P450 2B6 (Homo sapiens, UniProt P20813); assay: Inhibition of human recombinant CYP2B6 at 10 uM incubated for 10 to 30 mins in presence of CYP-specific probe EFC substrate by LC-MS/MS analysis; format: ADME; conditions: recombinant enzyme
# [14] = biological target: 5-hydroxytryptamine receptor 1B (Homo sapiens) (UniProt P28222); assay: Inhibition of human 5HT1B receptor at 10 uM
# [15] = biological target: 5-hydroxytryptamine receptor 2A (Homo sapiens) (UniProt P28223); assay: Inhibition of human 5HT2A receptor at 10 uM
# Mus musculus [16] = assay: Suppression of cognitive dysfunction in transgenic rTg4510 mouse model assessed as reduction in errors at […], po dosed every other day for 45 days by radial arm water maze test; format: functional, organism-based
# [17] = biological target: Cannabinoid receptor 1 (Homo sapiens) (UniProt P21554); assay: Inhibition of human CB1 receptor at 10 uM
# [18] = biological target: Muscarinic acetylcholine receptor M3 (Homo sapiens) (UniProt P20309); assay: Inhibition of human muscarinic M3 receptor at 10 uM
# [19] = biological target: Kappa-type opioid receptor (Homo sapiens) (UniProt P41145); assay: Inhibition of human OP2 receptor at 10 uM
# in vivo = conditions: mouse, po
# Description: Toxicity in orally dosed wild type mouse dosed daily for 14 days
# [20] = biological target: Histamine H1 receptor (Homo sapiens) (UniProt P35367); assay: Inhibition of human histamine H1 receptor at 10 uM
# [21] = biological target: Muscarinic acetylcholine receptor M1 (Homo sapiens) (UniProt P11229); assay: Inhibition of human muscarinic M1 receptor at 10 uM
# [22] = biological target: D(2) dopamine receptor (Homo sapiens) (UniProt P14416); assay: Inhibition of human D2S receptor at 10 uM
# Cytochrome P450 3A4 [23] = biological target: T1, Cytochrome P450 3A4 (Homo sapiens, UniProt P08684); assay: Inhibition of human recombinant CYP3A4 at 10 uM incubated for 10 to 30 mins in presence of CYP-specific probe BzRes substrate by LC-MS/MS analysis; format: ADME; conditions: recombinant enzyme
# [24] = biological target: Sodium-dependent serotonin transporter (Homo sapiens) (UniProt P31645); assay: Inhibition of human serotonin transporter at 10 uM
# [25] = biological target: Amine oxidase [flavin-containing] B (Homo sapiens, UniProt P27338); assay: Inhibition of human MAOB at 10 uM
# Mus musculus [26] = assay: Suppression of cognitive dysfunction in transgenic rTg4510 mouse model assessed as prevention of cortical tissue loss at […], po dosed every other day for 45 days; format: functional, organism-based
# [27] = biological target: Androgen receptor (Homo sapiens) (UniProt P10275); assay: Inhibition of human androgen receptor at 10 uM
# Cytochrome P450 2D6 = Cytochrome P450 2D6 (Homo sapiens, UniProt P10635); assay: Inhibition of human recombinant CYP2D6 at 10 uM incubated for 10 to 30 mins in presence of CYP-specific probe MFC substrate by LC-MS/MS analysis; format: ADME; conditions: recombinant enzyme
# [28] = biological target: GABA-A receptor; anion channel (Rattus norvegicus) (UniProt O09028+P15431+P18506+P18508+P19969+P20236+P23574+P23576+P28471+P28473+P30191+P62813+P63079+P63138+Q91ZM7+Q9ES14); assay: Inhibition of rat GABAA receptor at 10 uM; format: protein-complex assay
# [29] = biological target: Voltage-gated L-type calcium channel (Rattus norvegicus, UniProt P22002+Q02485+P27732); assay: Inhibition of rat L-type calcium channel at 10 uM; format: protein assay
# [30] = Permeability in MDCK cells expressing BCRP at 5 uM by LC-MS/MS analysis; format: ADME, cell-based, Canis lupus familiaris; conditions: dog
# Cytochrome P450 3A4 [31] = biological target: T1, Cytochrome P450 3A4; assay: Inhibition of human recombinant CYP3A4 at 10 uM incubated for 10 to 30 mins in presence of CYP-specific probe BFC substrate by LC-MS/MS analysis; format: ADME; conditions: recombinant enzyme
# Cytochrome P450 1A2 = Cytochrome P450 1A2 (Homo sapiens, UniProt P05177); assay: Inhibition of human recombinant CYP1A2 at 10 uM incubated for 10 to 30 mins in presence of CYP-specific probe CEC substrate by LC-MS/MS analysis; format: ADME; conditions: recombinant enzyme
# Mus musculus [32] = assay: Suppression of human recombinant tau-induced memory impairment in C57Bl/6 mouse model of oligomeric tau infusion model assessed as attenuation of deficits in spatial and associative memory performance at 5 mg/kg, ip dosed 20 mins prior to start of testing by radial arm water maze test; format: functional, organism-based
# Rattus norvegicus [33] = species: Rattus norvegicus; assay: Inhibition of rat sodium sodium channel at 10 uM
# in vitro [34] = conditions: human, hepatocytes
# Description: Half life in human hepatocytes at 1 uM by LC-MS/MS analysis
# [35] = biological target: D(1A) dopamine receptor (Homo sapiens) (UniProt P21728); assay: Inhibition of human DRD1 receptor at 10 uM
# [36] = biological target: Alpha-2A adrenergic receptor (Homo sapiens) (UniProt P08913); assay: Inhibition of human adrenergic alpha2a receptor at 10 uM
# [37] = Toxicity in wild type mouse assessed as induction of abnormalities in liver at 250 mg/kg; format: organism-based; conditions: in vivo
# Cytochrome P450 2C8 = Cytochrome P450 2C8 (Homo sapiens, UniProt P10632); assay: Inhibition of human recombinant CYP2C8 at 10 uM incubated for 10 to 30 mins in presence of CYP-specific probe DBF substrate by LC-MS/MS analysis; format: ADME; conditions: recombinant enzyme
# [38] = biological target: Cholecystokinin receptor type A (Homo sapiens) (UniProt P32238); assay: Inhibition of human CCK1 receptor at 10 uM
# [39] = biological target: Cannabinoid receptor 2 (Homo sapiens) (UniProt P34972); assay: Inhibition of human CB2 receptor at 10 uM
# [40] = biological target: Prostaglandin G/H synthase 2 (Homo sapiens, UniProt P35354); assay: Inhibition of human COX2 at 10 uM
# [41] = biological target: Beta-2 adrenergic receptor (Homo sapiens) (UniProt P07550); assay: Inhibition of human adrenergic beta2 receptor at 10 uM
# [42] = biological target: Sodium-dependent dopamine transporter (Homo sapiens) (UniProt Q01959); assay: Inhibition of human dopamine transporter at 10 uM
# [43] = Permeability in human Caco2 cells at 5 uM by LC-MS/MS analysis; format: ADME, cell-based; conditions: caco-2, 5 µM
# Rattus norvegicus [44] = species: Rattus norvegicus; assay: Inhibition of rat potassium channel at 10 uM
# Mus musculus [45] = assay: Suppression of cognitive dysfunction in transgenic rTg4510 mouse model assessed as prevention of hippocampal tissue loss at […], po dosed every other day for 45 days; format: functional, organism-based
# [46] = biological target: 3',5'-cyclic-AMP phosphodiesterase 4D (Homo sapiens) (UniProt Q08499); assay: Inhibition of human PDE4D2 at 10 uM
# [47] = biological target: cGMP-inhibited 3',5'-cyclic phosphodiesterase 3A (Homo sapiens, UniProt Q14432); assay: Inhibition of human PDE3A at 10 uM
# Mus musculus [48] = assay: Suppression of cognitive dysfunction in transgenic rTg4510 mouse model assessed as rescue of freezing deficit at […], po dosed every other day for 45 days by contextual fear conditioning assay; format: functional, organism-based
# [49] = biological target: Alpha-1A adrenergic receptor (Homo sapiens) (UniProt P35348); assay: Inhibition of human adrenergic alpha1a receptor at 10 uM
# [50] = biological target: Histamine H2 receptor (Homo sapiens) (UniProt P25021); assay: Inhibition of human histamine H2 receptor at 10 uM
# [51] = Toxicity in APP/PS1 knock-in mouse assessed as induction of abnormalities in liver at 250 mg/kg; format: organism-based; conditions: in vivo
# [52] = biological target: Vasopressin V1a receptor (Homo sapiens) (UniProt P37288); assay: Inhibition of human V1A receptor at 10 uM
# [53] = biological target: Mu-type opioid receptor (Homo sapiens) (UniProt P35372); assay: Inhibition of human OP3 receptor at 10 uM
# [54] = biological target: Amine oxidase [flavin-containing] A (Rattus norvegicus, UniProt P21396); assay: Inhibition of rat MAOA at 10 uM
# [55] = biological target: Adenosine receptor A2a (Homo sapiens) (UniProt P29274); assay: Inhibition of human adenosine A2A receptor at 10 uM
# Mus musculus [56] = assay: Effect on memory function in C57Bl/6 mouse at 5 mg/kg, ip dosed 20 mins prior to start of testing by radial arm water maze test; format: ADME, organism-based; conditions: in vivo
# T1 sequence (P08684 whole entry): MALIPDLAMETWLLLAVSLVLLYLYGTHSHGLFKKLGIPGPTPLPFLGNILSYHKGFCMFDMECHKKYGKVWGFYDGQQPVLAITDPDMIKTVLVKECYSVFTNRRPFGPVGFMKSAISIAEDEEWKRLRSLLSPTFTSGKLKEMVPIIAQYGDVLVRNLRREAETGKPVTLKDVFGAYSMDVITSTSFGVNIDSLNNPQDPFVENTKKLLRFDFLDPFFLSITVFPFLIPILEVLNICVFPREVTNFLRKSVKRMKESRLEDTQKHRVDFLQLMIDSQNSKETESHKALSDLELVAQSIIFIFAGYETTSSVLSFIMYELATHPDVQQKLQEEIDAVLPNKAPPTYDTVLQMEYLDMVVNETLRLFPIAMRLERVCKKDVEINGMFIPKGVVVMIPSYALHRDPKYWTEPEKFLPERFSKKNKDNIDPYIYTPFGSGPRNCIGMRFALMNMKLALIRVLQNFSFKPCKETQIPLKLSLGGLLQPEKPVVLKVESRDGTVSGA
# Chain of Cholecystokinin receptor type A (Homo sapiens) (P32238 whole entry): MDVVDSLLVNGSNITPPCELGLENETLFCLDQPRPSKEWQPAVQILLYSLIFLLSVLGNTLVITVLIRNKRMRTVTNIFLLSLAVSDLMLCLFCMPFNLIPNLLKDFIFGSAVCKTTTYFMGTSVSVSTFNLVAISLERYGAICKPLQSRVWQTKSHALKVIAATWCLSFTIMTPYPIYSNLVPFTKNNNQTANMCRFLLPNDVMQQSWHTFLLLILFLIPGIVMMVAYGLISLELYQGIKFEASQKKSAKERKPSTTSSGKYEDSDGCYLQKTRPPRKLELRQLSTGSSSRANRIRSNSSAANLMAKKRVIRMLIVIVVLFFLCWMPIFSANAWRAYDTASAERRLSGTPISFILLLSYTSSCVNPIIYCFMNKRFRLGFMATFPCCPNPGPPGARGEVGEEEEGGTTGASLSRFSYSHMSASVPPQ
# Chain of Histamine H1 receptor (Homo sapiens) (P35367 whole entry): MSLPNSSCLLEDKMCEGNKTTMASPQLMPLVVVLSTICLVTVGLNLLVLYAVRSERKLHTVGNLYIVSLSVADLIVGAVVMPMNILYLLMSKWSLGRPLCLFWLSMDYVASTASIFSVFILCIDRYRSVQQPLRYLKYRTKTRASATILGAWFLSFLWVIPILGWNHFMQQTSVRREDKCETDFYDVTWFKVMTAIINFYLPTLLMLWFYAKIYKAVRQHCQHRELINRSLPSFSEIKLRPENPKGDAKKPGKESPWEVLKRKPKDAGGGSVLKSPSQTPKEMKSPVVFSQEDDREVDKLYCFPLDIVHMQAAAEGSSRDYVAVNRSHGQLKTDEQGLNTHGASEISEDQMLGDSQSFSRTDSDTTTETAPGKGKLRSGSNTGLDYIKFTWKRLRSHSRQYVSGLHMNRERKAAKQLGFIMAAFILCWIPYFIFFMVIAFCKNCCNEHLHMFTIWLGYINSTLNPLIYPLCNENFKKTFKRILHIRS
# Chain of Amine oxidase [flavin-containing] A (P21396 whole entry): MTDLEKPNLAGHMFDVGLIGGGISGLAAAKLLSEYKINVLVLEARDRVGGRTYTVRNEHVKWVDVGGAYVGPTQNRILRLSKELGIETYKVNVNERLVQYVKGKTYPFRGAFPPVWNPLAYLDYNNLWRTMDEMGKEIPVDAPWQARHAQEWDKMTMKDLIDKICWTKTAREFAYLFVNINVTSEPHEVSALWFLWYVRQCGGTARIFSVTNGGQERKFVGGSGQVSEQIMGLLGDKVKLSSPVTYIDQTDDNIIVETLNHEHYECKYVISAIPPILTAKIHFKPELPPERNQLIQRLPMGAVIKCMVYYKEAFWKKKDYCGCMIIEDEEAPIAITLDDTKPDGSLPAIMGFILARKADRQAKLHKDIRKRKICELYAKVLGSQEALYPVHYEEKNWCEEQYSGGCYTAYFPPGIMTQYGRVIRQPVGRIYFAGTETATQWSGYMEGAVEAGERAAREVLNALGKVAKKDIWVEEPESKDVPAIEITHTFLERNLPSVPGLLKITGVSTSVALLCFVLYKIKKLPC
# Chain of Histamine H2 receptor (Homo sapiens) (P25021 whole entry): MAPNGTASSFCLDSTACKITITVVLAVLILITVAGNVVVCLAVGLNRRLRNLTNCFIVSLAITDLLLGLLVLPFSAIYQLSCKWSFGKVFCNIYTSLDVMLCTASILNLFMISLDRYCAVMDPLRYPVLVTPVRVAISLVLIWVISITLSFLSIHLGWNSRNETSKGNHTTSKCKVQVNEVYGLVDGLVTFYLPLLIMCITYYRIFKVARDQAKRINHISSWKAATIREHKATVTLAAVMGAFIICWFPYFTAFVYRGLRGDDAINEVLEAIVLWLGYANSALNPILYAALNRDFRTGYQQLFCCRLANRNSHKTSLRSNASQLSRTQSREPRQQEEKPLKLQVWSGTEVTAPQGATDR
# Chain of Cytochrome P450 1A2 (P05177 whole entry, the tested form may be a part): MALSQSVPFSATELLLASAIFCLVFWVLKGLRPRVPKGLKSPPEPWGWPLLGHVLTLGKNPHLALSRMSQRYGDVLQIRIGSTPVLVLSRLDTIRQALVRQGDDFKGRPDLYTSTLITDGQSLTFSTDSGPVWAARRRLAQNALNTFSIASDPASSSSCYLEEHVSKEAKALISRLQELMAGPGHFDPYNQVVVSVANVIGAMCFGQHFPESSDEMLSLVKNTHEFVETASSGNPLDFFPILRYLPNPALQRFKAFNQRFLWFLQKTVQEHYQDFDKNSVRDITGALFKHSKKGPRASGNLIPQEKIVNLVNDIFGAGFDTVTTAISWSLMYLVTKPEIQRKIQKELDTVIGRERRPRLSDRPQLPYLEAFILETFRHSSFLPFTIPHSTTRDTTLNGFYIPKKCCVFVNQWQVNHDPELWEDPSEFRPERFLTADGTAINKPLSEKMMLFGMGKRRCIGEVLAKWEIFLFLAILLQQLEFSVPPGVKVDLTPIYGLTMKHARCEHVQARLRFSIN
# Chain of Cytochrome P450 2C8 (P10632 whole entry): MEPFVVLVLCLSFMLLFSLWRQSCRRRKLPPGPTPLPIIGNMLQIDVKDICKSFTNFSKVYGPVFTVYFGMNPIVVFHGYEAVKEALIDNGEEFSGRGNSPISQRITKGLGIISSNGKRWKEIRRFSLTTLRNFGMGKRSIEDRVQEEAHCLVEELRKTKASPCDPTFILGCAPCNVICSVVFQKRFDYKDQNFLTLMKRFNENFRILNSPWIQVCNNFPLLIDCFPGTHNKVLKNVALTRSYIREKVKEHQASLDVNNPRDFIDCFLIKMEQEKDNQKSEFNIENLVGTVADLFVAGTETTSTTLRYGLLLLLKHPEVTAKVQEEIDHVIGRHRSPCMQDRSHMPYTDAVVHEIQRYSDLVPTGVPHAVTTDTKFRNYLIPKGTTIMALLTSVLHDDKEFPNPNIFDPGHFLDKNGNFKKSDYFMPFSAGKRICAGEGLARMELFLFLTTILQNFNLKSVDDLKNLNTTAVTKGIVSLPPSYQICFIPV
# Chain of D(1A) dopamine receptor (Homo sapiens) (P21728 whole entry): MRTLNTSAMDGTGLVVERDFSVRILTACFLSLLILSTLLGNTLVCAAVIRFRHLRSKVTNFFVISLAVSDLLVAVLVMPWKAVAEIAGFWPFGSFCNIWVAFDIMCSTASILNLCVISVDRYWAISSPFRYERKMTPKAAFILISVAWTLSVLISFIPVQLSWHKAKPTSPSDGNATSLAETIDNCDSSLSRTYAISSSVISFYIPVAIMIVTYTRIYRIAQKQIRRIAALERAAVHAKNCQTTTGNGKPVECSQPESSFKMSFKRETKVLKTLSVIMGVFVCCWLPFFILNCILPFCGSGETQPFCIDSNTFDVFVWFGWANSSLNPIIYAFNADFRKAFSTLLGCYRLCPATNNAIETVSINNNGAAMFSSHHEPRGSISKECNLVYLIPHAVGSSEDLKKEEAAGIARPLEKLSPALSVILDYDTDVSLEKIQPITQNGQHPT
# Chain of 5-hydroxytryptamine receptor 3A (Homo sapiens) (P46098 whole entry): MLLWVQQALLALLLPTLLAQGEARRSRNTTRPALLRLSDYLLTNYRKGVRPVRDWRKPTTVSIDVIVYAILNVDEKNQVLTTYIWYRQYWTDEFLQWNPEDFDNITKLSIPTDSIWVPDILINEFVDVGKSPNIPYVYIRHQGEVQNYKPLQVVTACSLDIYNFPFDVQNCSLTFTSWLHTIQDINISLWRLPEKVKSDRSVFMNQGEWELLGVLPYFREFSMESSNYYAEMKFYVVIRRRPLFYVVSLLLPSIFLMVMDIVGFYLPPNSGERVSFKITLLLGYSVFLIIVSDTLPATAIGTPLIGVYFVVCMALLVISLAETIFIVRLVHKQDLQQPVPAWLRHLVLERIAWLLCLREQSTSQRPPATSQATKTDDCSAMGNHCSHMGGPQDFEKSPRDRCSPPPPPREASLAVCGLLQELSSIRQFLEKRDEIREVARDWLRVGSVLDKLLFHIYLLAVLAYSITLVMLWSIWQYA
# Chain of Amine oxidase [flavin-containing] B (P27338 whole entry): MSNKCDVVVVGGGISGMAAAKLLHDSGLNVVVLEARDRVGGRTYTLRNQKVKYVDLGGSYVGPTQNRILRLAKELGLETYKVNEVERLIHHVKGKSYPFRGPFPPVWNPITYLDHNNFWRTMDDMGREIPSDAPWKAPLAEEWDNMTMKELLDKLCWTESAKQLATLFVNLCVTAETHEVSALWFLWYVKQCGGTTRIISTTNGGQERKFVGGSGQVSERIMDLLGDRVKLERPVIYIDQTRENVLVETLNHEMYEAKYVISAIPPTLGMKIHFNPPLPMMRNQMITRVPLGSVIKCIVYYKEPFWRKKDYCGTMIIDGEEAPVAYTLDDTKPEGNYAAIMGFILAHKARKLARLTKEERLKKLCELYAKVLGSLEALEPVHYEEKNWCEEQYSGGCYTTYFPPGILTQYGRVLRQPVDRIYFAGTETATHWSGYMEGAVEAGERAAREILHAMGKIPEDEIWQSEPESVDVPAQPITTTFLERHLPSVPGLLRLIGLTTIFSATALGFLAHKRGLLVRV
structure (smiles),measurement,setting,value
c1ccc2cc(-c3nnc(N4CCCCC4)cc3-c3ccncc3)ccc2c1,t1/2,[1],0.1 h
CN1CCN(c2cc(-c3ccncc3)c(-c3ccc4ccccc4c3)nn2)CC1 [MW-150],inhibition,[2],inactive
same,inhibition,[3],inactive
same,inhibition (INH),Cytochrome P450 2C9,Not Active
same,inhibition,[4],inactive
same,inhibition (INH),[5],Not Active
same,inhibition (INH),Cytochrome P450 2C19,Not Active
same,inhibition (INH),Acetylcholinesterase,Not Active
same,inhibition,[6],inactive
same,inhibition,[7],inactive
same,half-life at 1 µM,in vitro [8],> 2 h
same,inhibition,[9],inactive
same,Activity,Mus musculus [10],Active
same,inhibition,[11],inactive
same,inhibition,[12],inactive
same,inhibition,[13],inactive
same,inhibition (INH),Cytochrome P450 2B6,Not Active
same,inhibition,[14],inactive
same,inhibition,[15],inactive
same,Activity,Mus musculus [16],Active
same,inhibition,[17],inactive
same,inhibition,[18],inactive
same,inhibition,[19],inactive
same,NOAEL at 336 h,in vivo,125 mg/kg
same,inhibition,[20],inactive
same,inhibition,[21],inactive
same,inhibition,[22],inactive
same,inhibition (INH),Cytochrome P450 3A4 [23],Not Active
same,inhibition,[24],inactive
same,inhibition (INH),[25],Not Active
same,Activity,Mus musculus [26],Active
same,inhibition,[27],inactive
same,inhibition (INH),Cytochrome P450 2D6,Not Active
same,inhibition,[28],inactive
same,inhibition (INH),[29],Not Active
same,permeability,[30],Permeable
same,inhibition (INH),Cytochrome P450 3A4 [31],Not Active
same,inhibition (INH),Cytochrome P450 1A2,Not Active
same,Activity,Mus musculus [32],Active
same,inhibition,Rattus norvegicus [33],inactive
same,half-life at 1 µM,in vitro [34],> 2 h
same,inhibition,[35],inactive
same,inhibition,[36],inactive
same,Activity,[37],Non-Toxic
same,inhibition (INH),Cytochrome P450 2C8,Not Active
same,inhibition,[38],inactive
same,inhibition,[39],inactive
same,inhibition (INH),[40],Not Active
same,inhibition,[41],inactive
same,inhibition,[42],inactive
same,permeability,[43],Permeable
same,inhibition,Rattus norvegicus [44],inactive
same,Activity,Mus musculus [45],inactive
same,inhibition,[46],inactive
same,inhibition (INH),[47],Not Active
same,Activity,Mus musculus [48],Active
same,inhibition,[49],inactive
same,inhibition,[50],inactive
same,Activity,[51],Non-Toxic
same,inhibition,[52],inactive
same,inhibition,[53],inactive
same,inhibition (INH),[54],Not Active
same,inhibition,[55],inactive
same,Activity,Mus musculus [56],Non-Toxic
c1ccc2cc(-c3nnc(N4CCNCC4)cc3-c3ccncc3)ccc2c1,t1/2,[1],> 1 h
